Data on 9 compounds can be found in article PMC7976169 (Antiviral research, 2020).

The subject of one series is HCMV. Conditions: cited from earlier work.
Another series concerns Uninfected HFF cells. Description: Triphosphate formation in uninfected HFF cells. The format is in vitro ADME.
Series [1] deals with HCMV Towne-infected HFF cells. Description: Biosynthesis of nucleoside analog triphosphate in HCMV-infected cells. Format: in vitro ADME. Conditions: for Other metabolites detected: five times the EC50.
For the next series, the system named is HSV. Particulars: cited from earlier work.
Series [2] relates to HSV-1 KOS1.1-infected Vero cells. Description: Biosynthesis of nucleoside analog triphosphate in HSV-infected cells. The format is in vitro ADME.
The conditions of series [3]: in vivo; cited from earlier work.
Another series has as its system Uninfected Vero cells. The format is in vitro ADME.
Setting [4] is: read-out: EC50 vs HCMV, ref Qiu et al., 1998.
Setting [5] is: read-out: EC50 against HCMV, ref Zhou et al., 2004.

Where two headings read alike, the source gives them in different places.

As to `Nc1nc2c(ncn2/C=C2/CC2CO)c(=O)[nH]1` (stereo not drawn) [synguanol], the 50% effective concentration (EC50) in the series on HCMV (setting [4]) was 2100 nM. Besides, the “Levels of phosphates in uninfected HFF cells” value in the series with Uninfected HFF cells is “no measurable levels”. For the same compound, the Other metabolites detected result in series [1] was “no other metabolites”.
Regarding `CCCCOc1nc(N)nc2c1ncn2C=C1CC1(CO)CO` [MBX-2168], the EC50 in the series with HCMV (read-out: EC50 HCMV, ref Prichard et al., 2013) is 800 nM; in the series with HSV (read-out: EC50 HSV, ref Prichard et al., 2013) it was 6700 nM. The Other metabolites detected result is recorded as “no other metabolites” in series [2] (HSV-infected Vero cells, five times the EC50) and “no other metabolites” in series [1].
`O=C(O)P(=O)(O)O` [foscarnet]: in series [3], the “Incidence rate of nephrotoxicity” value is ~ 50%.
On to `Nc1nc(O)c2ncn(COC(CO)CO)c2n1` [GCV, ganciclovir], for which the EC50 was 4100 nM in the series on HCMV (setting [5]) and 7400 nM with HCMV (setting [4]). Besides, in the series with Uninfected HFF cells, the “Levels of phosphates in uninfected HFF cells” value is “no measurable levels”. Further, the Incidence of neutropenia in series [3] is ~ 30 % of patients. Further, the Other metabolites detected result in series [1] was “no other metabolites”.
On to `Nc1nc2c(ncn2COCCO)c(=O)[nH]1` [ACV, acyclovir], for which the “Levels of phosphates in uninfected Vero cells” value in the series with Uninfected Vero cells is reported as “no measurable level”. For the same compound, the half-maximal effective concentration (EC50) with HSV (reported EC50 of ACV, ref Furman et al., 1981) was 1000 nM.
With `Nc1ccn(C[C@@H](CO)OCP(=O)(O)O)c(=O)n1` [cidofovir], the “Incidence rate of nephrotoxicity” value in series [3] was ~ 50%.
As for `Nc1nc2c(ncn2COCCOP(=O)(O)OP(=O)(O)OP(=O)(O)O)c(=O)[nH]1` [ACV-TP], in series [2] (HSV-infected cells, 5.0 μM ACV, 8 hours), the “Triphosphate level at 8 hours” value was determined as 3.8 ± 0.3 pmol/10^6 cells. Further, in series [2] (HSV-infected cells, delay due to lack of HSV-TK early after infection), the “Delay in production of triphosphate” value is approximately 2 h.
In the case of `Nc1nc(O)c2ncn(COC(CO)COP(=O)(O)OP(=O)(O)OP(=O)(O)O)c2n1` (stereo not drawn) [GCV-TP], the “Peak Triphosphate Level” value in series [1] ([…], maximum at 120 hours) is recorded as 42.6 ± 3.7 pmol/10^6 cells.
Regarding `Nc1nc2c(ncn2/C=C2/CC2(CO)CO)c(=O)[nH]1` [FCV, Filociclovir], the EC50 in the series with HCMV (setting [5]) was 460 nM. In addition, the “Fold greater efficacy against HCMV compared to GCV” value with HCMV (ref Zhou et al., 2004) is given as 10 fold.

By EC50 is commonly meant the concentration at which the effect is half-maximal.
